Data as given in PMC7545214, “Structural basis for energy transfer in a huge diatom PSI-FCPI supercomplex” (Nature Communications, 2020).

Tests used:
[1] = target: T1, PSI core of the PSI-FCPI supercomplex (Chaetoceros neogracilis, UniProt A0A6J4B0E7+A0A6J4B109); test: cryo-EM structure, […] Å; type: binding; conditions: two molecules bound to PsaA/B/R
T1 construct: gene psaA; native purification from thylakoids with DDM; PsaS modelled as polyalanine; with Photosystem I iron-sulfur center; Photosystem I reaction center subunit II; Photosystem I reaction center subunit IV; Photosystem I reaction center subunit III; Photosystem I reaction center subunit VIII; Photosystem I reaction center subunit IX; Photosystem I reaction center subunit XI; Photosystem I reaction center subunit XII; Photosystem I subunit PsaR; Photosystem I subunit PsaS
T1 sequence (A0A6J4B0E7 1-733, one chain of several): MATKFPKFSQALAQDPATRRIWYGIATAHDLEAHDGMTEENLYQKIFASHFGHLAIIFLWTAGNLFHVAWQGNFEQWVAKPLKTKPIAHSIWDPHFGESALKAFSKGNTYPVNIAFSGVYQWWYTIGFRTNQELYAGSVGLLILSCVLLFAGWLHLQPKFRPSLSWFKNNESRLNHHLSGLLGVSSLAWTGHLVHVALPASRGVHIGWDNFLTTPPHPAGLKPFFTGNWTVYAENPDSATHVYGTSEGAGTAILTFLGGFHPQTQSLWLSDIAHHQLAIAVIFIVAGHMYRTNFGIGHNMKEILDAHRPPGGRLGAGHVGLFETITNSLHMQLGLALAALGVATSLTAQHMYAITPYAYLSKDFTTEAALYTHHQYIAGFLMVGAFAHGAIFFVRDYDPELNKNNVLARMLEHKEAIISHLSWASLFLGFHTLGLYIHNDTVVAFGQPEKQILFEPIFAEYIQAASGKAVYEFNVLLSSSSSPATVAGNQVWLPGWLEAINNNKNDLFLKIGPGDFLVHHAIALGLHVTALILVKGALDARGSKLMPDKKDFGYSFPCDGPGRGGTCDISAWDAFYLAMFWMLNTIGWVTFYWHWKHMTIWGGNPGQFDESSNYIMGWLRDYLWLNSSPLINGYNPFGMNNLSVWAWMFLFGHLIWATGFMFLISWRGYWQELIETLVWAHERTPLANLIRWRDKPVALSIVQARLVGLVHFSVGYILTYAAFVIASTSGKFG

[2] = target: T2, PsaR (Chaetoceros neogracilis, UniProt A0A6J4B118); test: cryo-EM structure, […] Å; type: binding; conditions: one molecule
T2 construct: gene psa28; native, within the PSI-FCPI supercomplex; 89 residues, two transmembrane helices; next to PsaB and FCPI-8/9/10
T2 sequence (A0A6J4B118 51-139): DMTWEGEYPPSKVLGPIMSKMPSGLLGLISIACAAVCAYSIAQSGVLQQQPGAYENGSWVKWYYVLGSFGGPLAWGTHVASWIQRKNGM

Row | Structure (SMILES) | cryo-EM structure, 2.38 Å ([1]; chain of each in supplement) | cryo-EM structure, 2.38 Å [2] | cryo-EM structure, 2.38 Å ([1]; one of them on PsaR)
1 | CC1=C(C#C/C(C)=C/C=C/C(C)=C/C=C/C=C(C)/C=C/C=C(C)/C=C/[C@@]23O[C@]2(C)C[C@@H](O)CC3(C)C)C(C)(C)C[C@H](O)C1 [diadinoxanthin] | two Ddx and two Fx were identified in the diatom PSI core |  | 
2 | CC(=O)O[C@H]1CC(C)(C)C(=C=C/C(C)=C/C=C/C(C)=C/C=C/C=C(C)/C=C/C=C(\C)C(=O)C[C@@]23O[C@]2(C)C[C@@H](O)CC3(C)C)[C@](C)(O)C1 [fucoxanthin] |  | binds one Chl a and one Fx | two Ddx and two Fx were identified in the diatom PSI core
